Results: ChEMBL document CHEMBL1149505 (Bioorg Med Chem Lett, 2006)

Tests used:
[1] = target: Synaptic vesicular amine transporter (Rattus norvegicus, UniProt Q01827); test: Inhibition of [3H]DTBZ binding to VMAT2 in rat synaptic vesicle membrane; assay type: cell membranes
[2] = target: Sodium-dependent serotonin transporter (Rattus norvegicus, UniProt P31652); test: Inhibition of [3H]5-HT uptake at SERT in rat hippocampal synaptosomes; assay type: subcellular, Hippocampus
[3] = target: Sodium-dependent dopamine transporter (Rattus norvegicus, UniProt P23977); test: Inhibition of [3H]DA uptake at DAT in rat striatal synaptosomes; assay type: subcellular, Brain
[4] = target: Neuronal acetylcholine receptor subunit alpha-7 (Rattus norvegicus, UniProt Q05941); test: Inhibition of [3H]MLA binding to alpha-7 nAChR in rat brain membrane; assay type: cell membranes
[5] = target: Neuronal acetylcholine receptor; alpha4/beta2 (Rattus norvegicus, UniProt P09483+P12390); test: Inhibition of [3H]NIC binding to alpha-4-beta-2 nAChR in rat brain membrane; assay type: cell membranes
Sequence of Neuronal acetylcholine receptor; alpha4/beta2 (P09483 whole entry): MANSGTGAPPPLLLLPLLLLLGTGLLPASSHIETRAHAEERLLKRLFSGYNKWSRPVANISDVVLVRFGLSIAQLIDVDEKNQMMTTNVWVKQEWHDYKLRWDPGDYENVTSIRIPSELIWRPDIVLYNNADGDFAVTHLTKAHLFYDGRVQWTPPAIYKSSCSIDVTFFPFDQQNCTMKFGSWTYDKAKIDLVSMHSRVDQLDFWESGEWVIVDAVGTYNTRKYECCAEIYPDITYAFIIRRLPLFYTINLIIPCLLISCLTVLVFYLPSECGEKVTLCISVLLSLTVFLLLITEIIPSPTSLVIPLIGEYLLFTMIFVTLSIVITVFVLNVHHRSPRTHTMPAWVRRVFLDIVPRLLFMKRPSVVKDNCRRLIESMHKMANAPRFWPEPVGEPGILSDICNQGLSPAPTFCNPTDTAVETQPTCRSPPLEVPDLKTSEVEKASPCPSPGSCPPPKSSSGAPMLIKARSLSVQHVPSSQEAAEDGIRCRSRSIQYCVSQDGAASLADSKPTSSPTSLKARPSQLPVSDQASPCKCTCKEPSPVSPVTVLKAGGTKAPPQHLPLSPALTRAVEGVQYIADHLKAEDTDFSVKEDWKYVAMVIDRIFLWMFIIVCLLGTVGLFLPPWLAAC
Sequence of Neuronal acetylcholine receptor; alpha4/beta2 (P12390 whole entry): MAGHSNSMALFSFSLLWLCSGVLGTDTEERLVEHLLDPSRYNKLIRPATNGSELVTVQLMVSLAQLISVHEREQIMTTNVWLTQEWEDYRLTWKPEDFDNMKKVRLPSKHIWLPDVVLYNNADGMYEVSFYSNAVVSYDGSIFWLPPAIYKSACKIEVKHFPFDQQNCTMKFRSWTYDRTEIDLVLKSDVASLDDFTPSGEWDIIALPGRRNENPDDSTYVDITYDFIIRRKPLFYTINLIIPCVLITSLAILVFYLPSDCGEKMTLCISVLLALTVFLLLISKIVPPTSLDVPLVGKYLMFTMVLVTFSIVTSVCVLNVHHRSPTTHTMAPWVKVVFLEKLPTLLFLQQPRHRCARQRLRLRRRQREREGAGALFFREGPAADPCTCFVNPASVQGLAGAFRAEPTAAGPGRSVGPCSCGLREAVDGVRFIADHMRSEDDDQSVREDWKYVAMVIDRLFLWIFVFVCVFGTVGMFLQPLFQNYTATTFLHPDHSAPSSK

Sequence of Sodium-dependent serotonin transporter (P31652 whole entry): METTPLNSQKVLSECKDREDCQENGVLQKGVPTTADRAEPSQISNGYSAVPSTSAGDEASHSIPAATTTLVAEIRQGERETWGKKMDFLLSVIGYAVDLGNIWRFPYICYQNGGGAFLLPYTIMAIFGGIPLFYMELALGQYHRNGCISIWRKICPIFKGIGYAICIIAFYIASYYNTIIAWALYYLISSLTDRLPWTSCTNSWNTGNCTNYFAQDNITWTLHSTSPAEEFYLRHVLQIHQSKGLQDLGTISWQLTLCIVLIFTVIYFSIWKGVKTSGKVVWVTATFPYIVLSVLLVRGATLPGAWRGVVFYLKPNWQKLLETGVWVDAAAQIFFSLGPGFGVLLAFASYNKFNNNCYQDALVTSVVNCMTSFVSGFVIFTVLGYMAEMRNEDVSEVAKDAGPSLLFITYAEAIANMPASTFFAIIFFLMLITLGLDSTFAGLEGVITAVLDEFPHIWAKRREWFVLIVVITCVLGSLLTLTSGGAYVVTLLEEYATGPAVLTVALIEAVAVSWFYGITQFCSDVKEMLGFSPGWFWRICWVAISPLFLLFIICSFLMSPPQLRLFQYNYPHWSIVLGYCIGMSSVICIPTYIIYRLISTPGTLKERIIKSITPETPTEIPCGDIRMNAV
Sequence of Neuronal acetylcholine receptor subunit alpha-7 (Q05941 whole entry): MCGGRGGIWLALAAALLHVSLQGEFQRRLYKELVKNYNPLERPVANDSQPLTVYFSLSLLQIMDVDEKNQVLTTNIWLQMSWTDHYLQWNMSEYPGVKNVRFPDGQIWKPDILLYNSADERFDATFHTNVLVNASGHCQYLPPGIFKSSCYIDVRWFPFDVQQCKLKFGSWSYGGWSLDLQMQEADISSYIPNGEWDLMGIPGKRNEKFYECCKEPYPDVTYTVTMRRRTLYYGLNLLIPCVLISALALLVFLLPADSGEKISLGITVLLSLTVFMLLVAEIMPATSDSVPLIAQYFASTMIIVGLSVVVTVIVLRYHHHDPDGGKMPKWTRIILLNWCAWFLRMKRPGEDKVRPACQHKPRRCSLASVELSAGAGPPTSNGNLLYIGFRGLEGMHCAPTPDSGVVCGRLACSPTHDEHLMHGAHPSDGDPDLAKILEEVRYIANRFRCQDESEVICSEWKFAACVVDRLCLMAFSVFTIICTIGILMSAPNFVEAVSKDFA
Sequence of Synaptic vesicular amine transporter (Q01827 whole entry): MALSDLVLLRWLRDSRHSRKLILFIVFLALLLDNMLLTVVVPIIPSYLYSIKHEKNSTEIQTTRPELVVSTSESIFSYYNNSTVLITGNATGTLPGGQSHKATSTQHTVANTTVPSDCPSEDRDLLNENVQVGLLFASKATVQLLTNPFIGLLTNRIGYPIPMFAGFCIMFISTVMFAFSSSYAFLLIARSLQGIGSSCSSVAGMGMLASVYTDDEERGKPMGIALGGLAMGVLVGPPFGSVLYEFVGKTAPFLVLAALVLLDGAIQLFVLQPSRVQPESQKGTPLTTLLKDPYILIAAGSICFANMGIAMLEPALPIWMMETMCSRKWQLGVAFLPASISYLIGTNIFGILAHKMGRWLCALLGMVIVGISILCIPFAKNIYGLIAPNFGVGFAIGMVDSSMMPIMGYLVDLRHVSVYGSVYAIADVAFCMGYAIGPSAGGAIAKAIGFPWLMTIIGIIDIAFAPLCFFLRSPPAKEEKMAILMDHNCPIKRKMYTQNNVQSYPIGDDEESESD
Sequence of Sodium-dependent dopamine transporter (P23977 whole entry): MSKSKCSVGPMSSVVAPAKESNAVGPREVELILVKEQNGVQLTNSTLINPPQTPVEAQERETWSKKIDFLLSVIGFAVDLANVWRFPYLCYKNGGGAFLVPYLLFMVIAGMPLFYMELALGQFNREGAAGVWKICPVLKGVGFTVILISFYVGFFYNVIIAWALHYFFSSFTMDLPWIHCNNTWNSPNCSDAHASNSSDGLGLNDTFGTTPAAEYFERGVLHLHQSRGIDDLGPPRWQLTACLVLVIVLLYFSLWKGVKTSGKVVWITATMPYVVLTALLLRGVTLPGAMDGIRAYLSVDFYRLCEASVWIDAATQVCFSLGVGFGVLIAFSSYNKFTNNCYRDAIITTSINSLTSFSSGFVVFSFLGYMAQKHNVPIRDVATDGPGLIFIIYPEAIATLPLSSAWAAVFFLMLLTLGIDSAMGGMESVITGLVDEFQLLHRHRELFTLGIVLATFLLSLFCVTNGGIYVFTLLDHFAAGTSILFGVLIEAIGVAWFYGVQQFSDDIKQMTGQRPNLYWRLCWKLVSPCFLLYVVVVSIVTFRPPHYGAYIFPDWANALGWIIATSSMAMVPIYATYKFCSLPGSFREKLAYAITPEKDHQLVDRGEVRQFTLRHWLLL

Compound | Ki [1] | Ki [2] | Ki [3] | IC50 [4] | IC50 [5] | Ki [4] | Ki [5]
CCC1(O)CC2c3cc(OC)c(OC)cc3CCN2CC1CC(C)C (configuration not stated) | 0.028 µM |  |  |  |  |  | 
CN1[C@@H](CC(=O)c2ccccc2)CCC[C@H]1C[C@H](O)c1ccccc1 [LOBELINE] |  | 46.8 µM | 28.2 µM |  |  |  | 
CN1[C@H](C[C@@H](O)c2ccccc2)CCC[C@@H]1/C=C/c1ccccc1 |  | 7.5 µM | 0.29 µM | > 100 µM | > 100 µM |  | 
CN1[C@@H](CCc2ccccc2)CCC[C@H]1C[C@@H](O)c1ccccc1 | 6.6 µM | 7.3 µM | 0.57 µM | > 100 µM | > 100 µM |  | 
CN1[C@H](C[C@H](O)c2ccccc2)CCC[C@@H]1/C=C/c1ccccc1 |  | 19 µM | 0.11 µM | > 100 µM |  |  | 
CN1[C@@H](CCc2ccccc2)CCC[C@H]1C[C@H](O)c1ccccc1 | 3.09 µM | 4.27 µM | 1.39 µM |  |  | 39.3 µM | 1.77 µM
CN1[C@@H](C[C@H](O)c2ccccc2)CCC[C@H]1/C=C/c1ccccc1 |  | 3.75 µM | 0.96 µM | > 100 µM | > 100 µM |  | 
CN1[C@H](CCc2ccccc2)CCC[C@@H]1C[C@@H](O)c1ccccc1 [8R-hydroxylobelane] | 1.98 µM | 0.15 µM | 1.88 µM |  |  | 1.21 µM | 2.36 µM
CN1[C@H](CCc2ccccc2)CCC[C@@H]1C[C@H](O)c1ccccc1 | 3.01 µM | 2.22 µM | 1.26 µM | > 100 µM |  |  | 33.6 µM
CN1[C@@H](C[C@@H](O)c2ccccc2)CCC[C@H]1/C=C/c1ccccc1 |  | 0.044 µM |  |  |  | 1.7 µM | 4.19 µM
